“Also recorded” adds a separate entry of the source. Read-outs that look alike come from different tables or passages of the source.
Tests used:
[1] = tested on: polyclonal Vγ9Vδ2 T cell line; assay: Degranulation assay for cytolytic function (CD107a), direct stimulation with soluble antigens; format: cell-based, human; settings: for surface expression of CD107a (cytotoxicity machinery): soluble antigen, no enzyme added
Excerpt: (§1) Brefeldin A was omitted. […] Cells were washed twice in FACS medium and stained for TCR-Vδ2. Data were acquired and analyzed as for proliferation assay. Results are expressed as the mean of triplicate microwell cultures +/-S.E.M.

[2] = biological target: T1, apyrase (Solanum tuberosum, UniProt P80595); assay: HPLC analysis of sensitivity to apyrase; format: in vitro ADME; settings: 100µM, 0.2U/mL apyrase, 1h at 37°C in RPMI
T1 sequence (P80595 1-454): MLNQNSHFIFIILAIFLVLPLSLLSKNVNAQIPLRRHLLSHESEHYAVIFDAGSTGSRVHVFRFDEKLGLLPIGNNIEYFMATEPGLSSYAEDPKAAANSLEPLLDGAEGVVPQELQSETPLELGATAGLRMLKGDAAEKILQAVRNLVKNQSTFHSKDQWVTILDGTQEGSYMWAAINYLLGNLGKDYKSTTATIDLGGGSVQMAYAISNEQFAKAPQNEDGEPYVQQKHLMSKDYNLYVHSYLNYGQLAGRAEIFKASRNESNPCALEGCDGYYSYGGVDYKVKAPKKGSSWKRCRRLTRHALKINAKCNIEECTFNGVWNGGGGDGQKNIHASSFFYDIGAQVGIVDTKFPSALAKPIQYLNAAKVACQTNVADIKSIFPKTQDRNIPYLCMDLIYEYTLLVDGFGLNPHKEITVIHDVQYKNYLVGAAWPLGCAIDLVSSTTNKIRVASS
Protocol: Reaction mixes containing nucleosidic compounds were adjusted to 200µL with water and products were separated by HPLC (System Gold, Beckman Coulter) on a PL-SAX anion exchange column (1000Å, 5µm, 50x4.6mm from Polymer Labs Varian, Marseille, France) using water (A) and 1M (NH4)2HPO4, pH 3.5 (B) and the following elution gradient: 0-1 min: 0% B; 1-11 min: 0% to 30% B; 11-13 min: 100% B; 13-19min: 0% B. Eluted nucleotides were detected by monitoring UV absorbance at 260nm. In these conditions, adenosine and AMP are not retained on the column and are detected with the elution front. To evaluate phosphatase sensitivity, ApppI and ATP (100µM final concentration) were incubated for 1h at 37°C in 20µL RPMI in the presence of 0.2U/mL apyrase or 0.02U/mL nucleotide pyrophosphatase before analysis.

[3] = biological target: nucleotide pyrophosphatase (Crotalus adamanteus, UniProt J3SEZ3)
[4] = tested on: Vγ9Vδ2 T cells; assay: Intracellular cytokine staining (IFNγ); format: cell-based, human
[5] = biological target: T2, F1-ATPase purified from bovine heart mitochondria (Bos taurus, UniProt P00829+P19483); assay: F1-ATPase activity, kinetics of ADP production (lactate dehydrogenase/pyruvate kinase assay); format: biochemical; settings: 100 µM ApppI, low ATP concentrations
T2 construct: F1-ATPase purified from bovine heart mitochondria; from tissue; host or cells: bovine heart mitochondria
Protocol: (§2) F1-ATPase complexes were recovered from ammonium sulfate precipitates by centrifugation (17000g, 3min) and dissolved in ATPase assay buffer (10mM HEPES, 150mM NaCl, 5mM KCl, 2mM MgCl2, pH 7.5). ATP and ADP were measured using two different assays. For ATP measurements, a bioluminescence assay was used: 100ng F1-ATPase were incubated at room temperature in 50µL of ATPase assay buffer containing 1µM ATP and the indicated apyrase-treated ApppI concentrations in white 96 wells plates. After 5 minutes, 30µL of reconstituted luciferase from the ATP CLSII Kit (Roche) were added and luminescence was acquired on an Orion luminometer (Berthold Detection Systems). The kinetics of ADP production resulting from ATP hydrolysis was measured using the lactate dehydrogenase/pyruvate kinase assay and was adapted from Gledhill, J.R. et al., Biochem J 386, 591-598, 2005: 2µg F1-ATPase were incubated in 200µL of ATPase assay buffer supplemented with phosphoenol pyruvate (500µM), NADH (250µM), lactate dehydrogenase (LDH, 1U) and pyruvate kinase (PK, 5U), with the indicated ATP concentrations and with or without 100µM apyrase-treated ApppI. OD340nm was measured during 2 minutes (with one measurement every 10 seconds) on a Varioskan Flash spectrophotometer (Thermo Electron Corporation). The initial hydrolysis rate (V0) was calculated from a linear regression of the data. […]

[6] = biological target: T2, F1-ATPase purified from bovine heart mitochondria; assay: F1-ATPase activity, ATP bioluminescence assay; format: biochemical; settings: 1µM ATP, 5min, ApppI added in the reaction mixture
Protocol: as §2

[7] = tested on: Vγ9Vδ2 T cells; assay: Single cell analysis of calcium mobilization; format: cell-based, human; settings: ApppI-loaded, F1-coated beads
[8] = tested on: Vγ9Vδ2 T cells; assay: Proliferation assay: Vγ9Vδ2 T cell expansion from PBL stimulated with phosphoantigen plus IL-2; format: cell-based, human
[9] = tested on: polyclonal Vγ9Vδ2 T cell line; assay: Degranulation assay (CD107a) with tumor cell lines as presenting or pulsed cells; format: cell-based, human; settings: for stimulatory activity of pulsed 721.221 cells: 721.221 cell line; for pulsing of RPMI-8226 cells: 2h, 10µM; for sensitivity of stimulation by pulsed cells to apyrase and pyrophosphatase: Daudi or K562 cells pulsed overnight (pamidronate 50µM, ApppI 20µM), apyrase 0.2U/mL, NPP 0.02U/mL, alone or in combination
[10] = biological target: T3, bovine F1-ATPase (in the form of F1Fo complexes) (Bos taurus, UniProt P00829+P19483); assay: Pulsing on F1Fo-coated beads and subsequent T cell activation (CD107a); format: binding
T3 construct: from tissue
Protocol: as §1
For immobilization on beads, solubilized F1Fo complexes were diluted to 1/3000 (5µg/mL) in 1 ml of PBS and incubated with 10^7 6µm polystyrene beads (Biovalley, Marne-la-Vallée, France) for 4h at room temperature on a rotating wheel. Beads were then pelleted by centrifugation (2min, 12000g), washed and incubated in 1mL of 1% BSA in PBS overnight, washed once with PBS and kept for several days at 4°C in PBS containing 1% BSA. Beads were used in stimulation assays as cultured cell lines. Control beads were prepared similarly except that F1Fo was replaced by BSA. In some experiments the beads were loaded with phosphoantigens: to this end, after washing a suitable aliquot, beads were incubated with ApppI or IPP (50µM) for 2 hours at 37°C in complete SFM medium, washed extensively, and used for Vγ9Vδ2 T cells stimulation. In phosphatase sensitivity assays (Fig.8) NPP or control medium were added to the beads in microculture wells 30min before pulsing the beads or addition of T cells. The beads were then washed and T cells were added with or without supplementation with the same phosphatases. T cell activation was evaluated as described above.

## Nc1ncnc2c1ncn2[C@@H]1O[C@H](COP(=O)(O)OP(=O)(O)O)[C@@H](O)[C@H]1O [ADP]
[1]; data not shown
  effect on T cell stimulations: no effect

## Nc1ncnc2c1ncn2[C@@H]1O[C@H](COP(=O)(O)OP(=O)(O)OP(=O)(O)O)[C@@H](O)[C@H]1O [ATP, reference compound]
[2]
  HPLC profile after apyrase treatment: completely hydrolyzed

## C=C(C)CCOP(=O)(O)OP(=O)(O)OP(=O)(O)OC[C@H]1O[C@@H](n2cnc3c(N)ncnc32)[C@H](O)[C@@H]1O [ApppI, 1-(adenosin-5'-yl) 3-(3-methylbut-3-enyl) triphosphoric diester]
[3]
  hydrolysis by NPP (HPLC): can be hydrolyzed
[4]; IPP (10µM) plus ApppI at varying concentrations
  effect of ApppI added to IPP on the IPP response: does not compete with IPP
[4]; PBL stimulation
  induction of intracellular IFN-γ production: could induce
[4]; relative to IPP, intracellular IFNγ
  higher concentration required for a similar cytokine response: 50-100 fold
[5]
  initial rate of ADP production relative to the rate in the absence of ApppI: approximately twice
[6]
  increase of the amount of ATP hydrolyzed by the complex: two-fold
[7]; NPP 0.02U/mL added after contact
  intracellular calcium mobilization: slow but strong and sustained calcium response
[7]; no NPP
  intracellular calcium mobilization: clear activation in few cells only
[8]; 5 µM
  homogeneity of the culture (Vγ9Vδ2 T cells): ~94%
[8]; PBL stimulation
  induction of proliferation: could induce
[8]; relative to IPP, 1 week after PBL stimulation
  higher molar concentration required for a similar effect on Vγ9Vδ2 T cell expansion from PBLs: 5-10 fold
[9]
  stimulatory activity of pulsed 721.221 cells: cannot be significantly pulsed; also recorded: poorly stimulatory
  sensitivity of stimulation by pulsed cells to apyrase and pyrophosphatase: completely resistant
[9]; 4°C
  pulsing of RPMI-8226 cells: abrogated
[9]; 37°C
  pulsing of RPMI-8226 cells: sufficient to confer stable stimulatory activity
[9]; 37°C after 2h pre-treatment with cytochalasin D (10µM)
  pulsing of RPMI-8226 cells: abrogated
[9]; RPMI-8226 cells 1:1 ratio plus soluble antigen
  stimulation by combination of RPMI-8226 cells and phosphoantigen: synergistic activation
[9]; tumor cell lines pulsed overnight, compared to tumor cells not washed
  stimulatory activity retained on pulsed tumor cells after extensive washing: 70%
[1]; NPP 0.02U/mL added to the T cell stimulation assay
  effect of exogenous NPP on stimulatory activity: greatly increased
[1]; apyrase 0.2U/mL, antigen 10µM
  effect of apyrase on stimulatory activity: abrogates completely
[1]
  surface expression of CD107a (cytotoxicity machinery): less bioactive than IPP itself
[10]; ApppI treated with NPP before pulsing on beads
  stimulatory activity of loaded F1-ATPase-coated beads: no activity is retained
[10]; NPP 0.02U/mL added in the T cell stimulation assay
  stimulatory activity of loaded F1-ATPase-coated beads: a strong stimulatory activity can be revealed
[10]; beads incubated with 50µM antigen for 2h, washed, no NPP
  stimulatory activity of loaded F1-ATPase-coated beads: confers some additional stimulatory activity
[10]; beads treated with NPP after pulsing, then washed
  stimulatory activity of loaded F1-ATPase-coated beads: retain an activity identical to that of beads which have not been treated with NPP
[2]
  HPLC profile after apyrase treatment: did not change its HPLC profile

## C=C(C)CCO[P@@](=O)(O)OP(=O)(O)O [IPP, isopentenyl pyrophosphate, reference compound]
[9]
  stimulatory activity retained on pulsed tumor cells after extensive washing: less than 20%
[1]
  surface expression of CD107a (cytotoxicity machinery): stronger stimulation

## Cc1nc(N=Nc2ccc(S(=O)(=O)O)cc2S(=O)(=O)O)c(COP(=O)(O)O)c(C=O)c1O [PPADS, pyridoxal phosphate-6-azophenyl-2',4'-disulfonic acid]
[1]; PPADS added to ApppI stimulation
  effect on ApppI stimulatory activity: inhibition
[1]; PPADS added to IPP stimulation
  effect on IPP stimulatory activity: partially decreases

## CC[C@H](C)C(=O)O[C@H]1C[C@@H](C)C=C2C=C[C@H](C)[C@H](CC[C@@H]3C[C@@H](O)CC(=O)O3)[C@H]21 [lovastatin, reference compound]
[9]; K562 cells, lovastatin 20µM, ApppI 20µM, overnight
  effect on stimulatory activity induced by pulsing with ApppI: does not inhibit
[9]; K562 cells, lovastatin 20µM, pamidronate 50µM, overnight
  effect on stimulatory activity induced by pamidronate: efficiently abrogates

## NCCC(O)(P(=O)(O)O)P(=O)(O)O [pamidronate, reference compound]
[9]
  stimulatory activity of pulsed 721.221 cells: poorly stimulatory
  sensitivity of stimulation by pulsed cells to apyrase and pyrophosphatase: completely resistant

— EP2123285A1, “Nucleosidic phosphoantigens for use in VGAMMA9DELTA2 T cell-mediated therapy” (INSERM (Institut National de la Santé et de la Recherche …, priority 2008, dated 2009)
